Laboratory results: patent US6737383B1, “Herbicidal oxadiazolidines” (priority 1999, dated 2004)

Legend:
morningglory = test: Test B pre/postemergence morningglory; assay type: in vivo, Ipomoea hederacea
In short: (§1)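 Test chemicals in a non-phytotoxic solvent mixture with surfactant were sprayed preemergence onto planted seeds and postemergence onto plants 2 to 18 cm tall (1- to 4-leaf stage). After twelve to sixteen days in a greenhouse, injury was visually rated against untreated controls from 0 (no effect) to 10 (complete control).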

pigweed = test: Test B pre/postemergence pigweed; assay type: in vivo, Amaranthus retroflexus
In short: as §1

bedstraw = test: Test B pre/postemergence bedstraw; assay type: in vivo, Galium aparine; conditions: Postemergence
In short: as §1

rice = test: Test B flood test rice; assay type: in vivo, Oryza sativa
In short: (§2)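 Read-out is a visual response score from 0 (no effect) to 10 (complete control), assigned by comparison with untreated controls. Treatment was applied at the 2-leaf stage, and plants stayed in the greenhouse for twelve to sixteen days before scoring.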

cocklebur = test: Test B pre/postemergence cocklebur; assay type: in vivo, Xanthium strumarium
In short: as §1

blackgrass = test: Test B pre/postemergence blackgrass; assay type: in vivo, Alopecurus myosuroides
In short: as §1

smallflower flatsedge = test: Test B flood test smallflower flatsedge; assay type: in vivo, Cyperus difformis
In short: as §2

rape = test: Test B pre/postemergence rape; assay type: in vivo, Brassica napus
In short: as §1

soybean = test: Test B pre/postemergence soybean; assay type: in vivo, Glycine max
In short: as §1

velvetleaf = test: Test B pre/postemergence velvetleaf; assay type: in vivo, Abutilon theophrasti
In short: as §1

sugar beet = test: Test B pre/postemergence sugar beet; assay type: in vivo, Beta vulgaris
In short: as §1

corn = test: Test B pre/postemergence corn; assay type: in vivo, Zea mays
In short: as §1

bamyardgrass = test: Test B flood test barnyardgrass; assay type: in vivo, Echinochloa crus-galli
In short: as §2

surinam grass = test: Test B pre/postemergence surinam grass; assay type: in vivo, Brachiaria decumbens
In short: as §1

purple nutsedge = test: Test B pre/postemergence purple nutsedge; assay type: in vivo, Cyperus rotundus
In short: as §1

wild oat = test: Test B pre/postemergence wild oat; assay type: in vivo, Avena fatua
In short: as §1

[1] = Postemergence, Rate 250 g/ha, scale 0 to 10
[2] = Postemergence, Rate 500 g/ha, scale of 0 to 10 where 0 is no effect and 10 is complete control
[3] = Preemergence, Rate 62 g/ha, scale of 0 to 10 where 0 is no effect and 10 is complete control
[4] = Preemergence, Rate 125 g/ha, scale of 0 to 10 where 0 is no effect and 10 is complete control
[5] = Preemergence, Rate 250 g/ha, scale 0 to 10, 0 is no effect, 10 is complete control
[6] = Preemergence, Rate 500 g/ha, scale 0 to 10, 0 is no effect, 10 is complete control
[7] = Rate 62 g/ha, Postemergence, scale 0 to 10, 0 no effect, 10 complete control
[8] = Rate 125 g/ha, Postemergence, scale 0 to 10, 0 is no effect, 10 is complete control
[9] = Rate 62 g/ha, flood test species, Pre-emergence, visual evaluation after twelve to sixteen days
[10] = Rate 125 g/ha, under heading Pre-emergence, flood test species, visual evaluation after twelve to sixteen days
[11] = Rate 250 g/ha, Pre-emergence (flood test species), scale 0 to 10, 0 is no effect, 10 is complete control
[12] = Rate 500 g/ha, Pre-emergence, flood test species, scale 0 to 10 (0 no effect, 10 complete control)

SMILES: CC(C)N(C(=O)n1oc(=O)n(CCl)c1=O)c1ccc(F)cc1F [Compound 437]
- Morningglory plant response rating (morningglory; [1]): 4
- Morningglory plant response rating (morningglory; [2]): 9
- Plant response rating, Morningglory (morningglory; [3]): 0
- Plant response rating, Morningglory (morningglory; [4]): 0
- Morningglory plant response rating (morningglory; [5]): 0
- Morningglory plant response rating (morningglory; [6]): 0
- Morningglory plant response rating (morningglory; [7]): 0
- Morningglory plant response rating (morningglory; [8]): 1
- Redroot pigweed plant response rating (pigweed; [1]): 0
- Redroot pigweed plant response rating (pigweed; [2]): 0
- Plant response rating, Redroot pigweed (pigweed; [3]): 0
- Plant response rating, Redroot pigweed (pigweed; [4]): 0
- Redroot pigweed plant response rating (pigweed; [5]): 0
- Redroot pigweed plant response rating (pigweed; [6]): 0
- Redroot pigweed plant response rating (pigweed; [7]): 0
- Redroot pigweed plant response rating (pigweed; [8]): 0
- Bedstraw plant response rating (bedstraw; Rate 250 g/ha, scale 0 to 10): 0
- Bedstraw plant response rating (bedstraw; Rate 62 g/ha, scale 0 to 10, 0 no effect, 10 complete control): 0
- Bedstraw plant response rating (bedstraw; Rate 125 g/ha, scale 0 to 10, 0 is no effect, 10 is complete control): 0
- Plant response rating, Rice (0 to 10 scale, 0 is no effect, 10 is complete control) (rice; [9]): 0
- Rice plant response rating (0 to 10 scale, 0 is no effect, 10 is complete control) (rice; [10]): 0
- Rice plant response rating (rice; [11]): 0
- Rice plant response rating (rice; [12]): 0
- Cocklebur plant response rating (cocklebur; [1]): 0
- Cocklebur plant response rating (cocklebur; [2]): 1
- Plant response rating, Cocklebur (cocklebur; [3]): 0
- Plant response rating, Cocklebur (cocklebur; [4]): 0
- Cocklebur plant response rating (cocklebur; [5]): 0
- Cocklebur plant response rating (cocklebur; [6]): 0
- Cocklebur plant response rating (cocklebur; [7]): 0
- Cocklebur plant response rating (cocklebur; [8]): 0
- Blackgrass plant response rating (blackgrass; [1]): 0
- Blackgrass plant response rating (blackgrass; [2]): 0
- Plant response rating, Blackgrass (blackgrass; [3]): 0
- Plant response rating, Blackgrass (blackgrass; [4]): 0
- Blackgrass plant response rating (blackgrass; [5]): 0
- Blackgrass plant response rating (blackgrass; [6]): 0
- Blackgrass plant response rating (blackgrass; [7]): 0
- Blackgrass plant response rating (blackgrass; [8]): 0
- Plant response rating, S. Flatsedge (0 to 10 scale, 0 is no effect, 10 is complete control) (smallflower flatsedge; [9]): 0
- S. Flatsedge plant response rating (0 to 10 scale, 0 is no effect, 10 is complete control) (smallflower flatsedge; [10]): 0
- S. Flatsedge plant response rating (smallflower flatsedge; [11]): 0
- S. Flatsedge plant response rating (smallflower flatsedge; [12]): 0
- Rape plant response rating (rape; [1]): 0
- Rape plant response rating (rape; [2]): 0
- Plant response rating, Rape (rape; [3]): 0
- Plant response rating, Rape (rape; [4]): 0
- Rape plant response rating (rape; [5]): 0
- Rape plant response rating (rape; [6]): 0
- Rape plant response rating (rape; [7]): 0
- Rape plant response rating (rape; [8]): 0
- Soybean plant response rating (soybean; [1]): 0
- Soybean plant response rating (soybean; [2]): 2
- Plant response rating, Soybean (soybean; [3]): 0
- Plant response rating, Soybean (soybean; [4]): 0
- Soybean plant response rating (soybean; [5]): 0
- Soybean plant response rating (soybean; [6]): 0
- Soybean plant response rating (soybean; [7]): 0
- Soybean plant response rating (soybean; [8]): 0
- Velvetleaf plant response rating (velvetleaf; [1]): 0
- Velvetleaf plant response rating (velvetleaf; [2]): 0
- Plant response rating, Velvetleaf (velvetleaf; [3]): 0
- Plant response rating, Velvetleaf (velvetleaf; [4]): 0
- Velvetleaf plant response rating (velvetleaf; [5]): 0
- Velvetleaf plant response rating (velvetleaf; [6]): 0
- Velvetleaf plant response rating (velvetleaf; [7]): 0
- Velvetleaf plant response rating (velvetleaf; [8]): 0
- Sugarbeets plant response rating (sugar beet; [1]): 0
- Sugarbeets plant response rating (sugar beet; [2]): 0
- Plant response rating, Sugarbeets (sugar beet; [3]): 0
- Plant response rating, Sugarbeets (sugar beet; [4]): 0
- Sugarbeets plant response rating (sugar beet; [5]): 0
- Sugarbeets plant response rating (sugar beet; [6]): 0
- Sugarbeets plant response rating (sugar beet; [7]): 0
- Sugarbeets plant response rating (sugar beet; [8]): 0
- Corn plant response rating (corn; [1]): 0
- Corn plant response rating (corn; [2]): 0
- Plant response rating, Corn (corn; [3]): 0
- Plant response rating, Corn (corn; [4]): 0
- Corn plant response rating (corn; [5]): 0
- Corn plant response rating (corn; [6]): 0
- Corn plant response rating (corn; [7]): 0
- Corn plant response rating (corn; [8]): 0
- Plant response rating, Barnyardgrass (0 to 10 scale, 0 is no effect, 10 is complete control) (bamyardgrass; [9]): 0
- Barnyardgrass plant response rating (0 to 10 scale, 0 is no effect, 10 is complete control) (bamyardgrass; [10]): 0
- Barnyardgrass plant response rating (bamyardgrass; [11]): 0
- Barnyardgrass plant response rating (bamyardgrass; [12]): 0
- B. signalgrass plant response rating (surinam grass; Postemergence, Rate 250 g/ha, scale 0 to 10, 0 no effect, 10 complete control): 0
- B. signalgrass plant response rating (surinam grass; [2]): 0
- Plant response rating, B. signalgrass (surinam grass; [3]): 0
- Plant response rating, B. signalgrass (surinam grass; [4]): 0
- B. signalgrass plant response rating (surinam grass; [5]): 0
- B. signalgrass plant response rating (surinam grass; [6]): 0
- B. signalgrass plant response rating (surinam grass; [7]): 0
- B. signalgrass plant response rating (surinam grass; [8]): 0
- Nutsedge plant response rating (purple nutsedge; [1]): 0
- Nutsedge plant response rating (purple nutsedge; [2]): 0
- Plant response rating, Nutsedge (purple nutsedge; [3]): 0
- Plant response rating, Nutsedge (purple nutsedge; [4]): 0
- Nutsedge plant response rating (purple nutsedge; [5]): 0
- Nutsedge plant response rating (purple nutsedge; [6]): 0
- Nutsedge plant response rating (purple nutsedge; [7]): 0
- Nutsedge plant response rating (purple nutsedge; [8]): 0
- Wild oats plant response rating (wild oat; [1]): 0
- Wild oats plant response rating (wild oat; [2]): 3
- Plant response rating, Wild oats (wild oat; [3]): 0
- Plant response rating, Wild oats (wild oat; [4]): 0
- Wild oats plant response rating (wild oat; [5]): 0
- Wild oats plant response rating (wild oat; [6]): 0
- Wild oats plant response rating (wild oat; [7]): 0
- Wild oats plant response rating (wild oat; [8]): 0
